Measurements: patent publication US11596608B2, “Formulation” (INDEX PHARMACEUTICALS AB, priority 2018, dated 2023)
Oligonucleotides are written 5' to 3', each unit as a sugar letter and its base; * is a phosphorothioate linkage, no mark a phosphodiester; rarer units and linkages stand in square brackets, end groups in braces. Plain capitals give the bases only. d = 2'-deoxy (DNA)

Tests used:
[1] = Chemical stability assessment of core formulations (HPLC assay and related substances); type: physicochemical; settings: reference raw material
Protocol: The bulk mixes were assessed physically and chemically initially and following four weeks of storage at 40° C./75% RH. For the physical assessments, samples were assessed visually for appearance changes, focusing on colour and physical behaviour.
The samples were run on an X Bridge BEH C18, 2.5 μm, 4.6 mm×50 mm column with a flow rate of 0.4 ml/min at 60° C., a run time of 60 minutes and a detection wavelength of 260 nm. The sample injection volume was […] with a sampler temperature of 5° C. The mobile phase compositions were as follows: • Mobile phase A 3% Acetonitrile in 0.2% TEA, 1% HFIP, • Mobile phase B 12% Acetonitrile in 0.2% TEA, 1% HFIP, • Mobile phase C Acetonitrile, • Mobile phase D water.

[2] = test system: chronic active UC; settings: cited from earlier work
[3] = Cobitolimod suspension limit in Capryol only; type: physicochemical; settings: corresponding to 13-14% cobitolimod in Capryol PGMC
Protocol: The cobitolimod suspension limit in Capryol only was assessed by repeating the steps of (i) adding the API to Capryol, (ii) spatula stirring and (iii) sonication, until the suspension became unworkable due to, for example, being too viscous, agglomerates forming that would not break down etc.

[4] = observed during manufacture of Example 3 formulation
Protocol: The vials were then high shear mixed for a minimum of 2×2 minutes then allowed to settle, all had visible insoluble material, therefore the samples were then high shear mixed for a further 2 minutes and visually assessed before samples taken for pH analysis. pH analysis involved centrifuging the sample at 14000 RPM for 10 minutes to separate out the insoluble material and then diluting 1 g of the clear supernatant with 3 g of deionised water, mixing thoroughly and measuring the pH.

[5] = test system: UC; settings: versus placebo; cited from earlier work

5′-G*G*A*ACAGTTCGTCCAT*G*G*C-3′ (DNA dG*dG*dA*dAdCdAdGdTdTdCdGdTdCdCdAdT*dG*dG*dC) [cobitolimod]
impurity level [1]: 5.3 area % | safety and tolerability ([2]; human, in vivo): safe and well tolerated | clinical efficacy ([2]; patients with chronic active UC): effective to induce clinical response and remission | limit of suspendability expressed per capsule [3]: approx. 53 mg cobitolimod/capsule

NC(CO)(CO)CO [tromethamine]
solubility of tromethamine in Capryol PGMC [4]: some insolubility

vedolizumab: α4β7 integrin inhibitor approved for the treatment of UC
inducing and maintaining clinical response, clinical remission, and mucosal healing [5]: more effective than placebo
